Source: article PMC7178340 (ACS Omega, 2020)

System: VEGFR
Experiment: Cell-based competitive binding assay on U87MG cells
Parameters: species or system human
Conditions: read-out: IC50, competitive binding, competition against [^64Cu]VEGF125–136 (74 kBq/1 mL), competitor 0-10 000 nmol/L, 37 °C, 1 h, γ counter, triplicate

QKRKRKKSRYKS [VEGF125–136]
IC50: 277 ± 6.19 nM
